Data reported in ChEMBL document CHEMBL4800729 (2021).

How the values were obtained:
[1] = target: Serine/threonine-protein kinase N2 (Homo sapiens) (UniProt Q16513); assay: PRK2(h) Millipore kinase panel; settings: Compound concentration 1.0 uM
[2] = target: Mitogen-activated protein kinase kinase kinase 10 (Homo sapiens) (UniProt Q02779); assay: MLK2(h) Millipore kinase panel; settings: Compound concentration 1.0 uM
Rattus norvegicus = species: Rattus norvegicus; settings: Compound concentration 10.0 uM
[3] = target: Glutamate NMDA receptor (Rattus norvegicus) (UniProt P35439+Q00959+Q00960+Q00961+Q62645+Q8VHN2+Q9R1M7); settings: Compound concentration 10.0 uM
[4] = target: Serine/threonine-protein kinase SIK2 (Homo sapiens) (UniProt Q9H0K1); assay: SIK2(h) Millipore kinase panel; settings: Compound concentration 1.0 uM
[5] = target: Cyclin-dependent kinase-like 2 (Homo sapiens) (UniProt Q92772); assay: CDKL2(h) Millipore kinase panel; settings: Compound concentration 1.0 uM
[6] = target: Alpha-2A adrenergic receptor (Homo sapiens) (UniProt P08913); settings: Compound concentration 10.0 uM
[7] = target: Tau-tubulin kinase 1 (Homo sapiens) (UniProt Q5TCY1); assay: TTBK1(h) Millipore kinase panel; settings: Compound concentration 1.0 uM
[8] = target: Inhibitor of nuclear factor kappa-B kinase subunit alpha (Homo sapiens) (UniProt O15111); assay: IKKalpha(h) Millipore kinase panel; settings: Compound concentration 1.0 uM
[9] = target: Serine/threonine-protein kinase ULK1 (Homo sapiens) (UniProt O75385); assay: ULK1(h) Millipore kinase panel; settings: Compound concentration 1.0 uM
[10] = target: Cyclin-dependent kinase 2/cyclin A (Homo sapiens) (UniProt P24941+P20248+P78396); assay: CDK2/cyclinA(h) Millipore kinase panel; assay type: protein-complex assay; settings: Compound concentration 1.0 uM
[11] = target: Leucine-rich repeat serine/threonine-protein kinase 2 (Homo sapiens) (UniProt Q5S007); assay: LRRK2(h) Millipore kinase panel; settings: Compound concentration 1.0 uM
[12] = target: Thromboxane-A synthase (Homo sapiens) (UniProt P24557); assay: Inhibition of Thromboxane Synthase at compound concentration of 10.0 uM in the Eurofins-Panlabs enzyme assay (Eurofins_assay_194020); set-up: substrate with concentration; settings: Compound concentration 10.0 uM
[13] = target: Serine/threonine-protein kinase mTOR (Homo sapiens) (UniProt P42345); assay: mTOR(h) Millipore kinase panel; settings: Compound concentration 1.0 uM
[14] = target: Serine/threonine-protein kinase DCLK3 (Homo sapiens) (UniProt Q9C098); assay: DCAMKL3(h) Millipore kinase panel; settings: Compound concentration 1.0 uM
[15] = target: Serine/threonine-protein kinase PLK3 (Homo sapiens) (UniProt Q9H4B4); assay: Plk3(h) Millipore kinase panel; settings: Compound concentration 1.0 uM
[16] = target: Serine/threonine-protein kinase PRP4 homolog (Homo sapiens) (UniProt Q13523); assay: PRP4(h) Millipore kinase panel; settings: Compound concentration 1.0 uM
[17] = target: Discoidin domain-containing receptor 2 (Homo sapiens) (UniProt Q16832); assay: DDR2(h) Millipore kinase panel; settings: Compound concentration 1.0 uM
Sequence of Discoidin domain-containing receptor 2 (Homo sapiens) (Q16832 whole entry, the tested form may be a part): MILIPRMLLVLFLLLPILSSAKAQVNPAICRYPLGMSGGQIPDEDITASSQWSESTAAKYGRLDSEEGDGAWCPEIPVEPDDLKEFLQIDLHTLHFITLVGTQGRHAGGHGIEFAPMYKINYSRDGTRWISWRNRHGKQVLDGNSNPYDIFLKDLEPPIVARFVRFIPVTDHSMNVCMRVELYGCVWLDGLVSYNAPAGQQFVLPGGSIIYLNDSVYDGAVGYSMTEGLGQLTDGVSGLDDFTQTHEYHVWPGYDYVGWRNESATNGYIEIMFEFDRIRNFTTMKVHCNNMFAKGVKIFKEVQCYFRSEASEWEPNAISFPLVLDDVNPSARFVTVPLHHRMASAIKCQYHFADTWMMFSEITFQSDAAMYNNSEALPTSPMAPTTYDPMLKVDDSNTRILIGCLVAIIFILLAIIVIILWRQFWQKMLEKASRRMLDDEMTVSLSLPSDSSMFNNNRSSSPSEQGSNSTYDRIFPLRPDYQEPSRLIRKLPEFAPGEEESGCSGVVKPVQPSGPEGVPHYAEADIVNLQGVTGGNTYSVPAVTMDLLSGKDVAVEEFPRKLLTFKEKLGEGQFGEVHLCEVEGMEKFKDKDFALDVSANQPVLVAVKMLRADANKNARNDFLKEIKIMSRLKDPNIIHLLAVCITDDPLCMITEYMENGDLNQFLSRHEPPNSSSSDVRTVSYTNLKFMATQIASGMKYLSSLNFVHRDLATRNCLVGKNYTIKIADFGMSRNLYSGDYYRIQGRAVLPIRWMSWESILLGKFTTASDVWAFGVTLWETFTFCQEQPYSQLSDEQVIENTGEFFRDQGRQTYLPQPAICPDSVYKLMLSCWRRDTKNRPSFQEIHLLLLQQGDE

[18] = target: Mu-type opioid receptor (Homo sapiens) (UniProt P35372); settings: Compound concentration 10.0 uM
Sequence of Mu-type opioid receptor (Homo sapiens) (P35372 whole entry): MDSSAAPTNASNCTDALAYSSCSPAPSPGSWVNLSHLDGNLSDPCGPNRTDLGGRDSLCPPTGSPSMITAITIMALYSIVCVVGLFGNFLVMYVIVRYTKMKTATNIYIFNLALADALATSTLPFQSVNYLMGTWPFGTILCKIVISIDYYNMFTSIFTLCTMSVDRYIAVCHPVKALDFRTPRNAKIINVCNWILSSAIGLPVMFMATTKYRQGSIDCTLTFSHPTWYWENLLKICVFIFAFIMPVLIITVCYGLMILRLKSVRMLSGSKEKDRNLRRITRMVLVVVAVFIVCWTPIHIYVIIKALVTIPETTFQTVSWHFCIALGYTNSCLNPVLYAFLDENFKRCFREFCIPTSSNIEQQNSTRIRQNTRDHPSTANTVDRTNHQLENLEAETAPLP

[19] = target: Histamine H3 receptor (Homo sapiens) (UniProt Q9Y5N1); settings: Compound concentration 10.0 uM
[20] = target: Serine/threonine-protein kinase 10 (Homo sapiens) (UniProt O94804); assay: LOK(h) Millipore kinase panel; settings: Compound concentration 1.0 uM
[21] = target: BDNF/NT-3 growth factors receptor (Homo sapiens) (UniProt Q16620); assay: TrkB(h) Millipore kinase panel; settings: Compound concentration 1.0 uM
[22] = target: Phosphorylase b kinase gamma catalytic chain, skeletal muscle/heart isoform (Homo sapiens) (UniProt Q16816); assay: PhKgamma1(h) Millipore kinase panel; settings: Compound concentration 1.0 uM
[23] = target: Serine/threonine-protein kinase Nek11 (Homo sapiens) (UniProt Q8NG66); assay: NEK11(h) Millipore kinase panel; settings: Compound concentration 1.0 uM
[24] = target: Serine/threonine-protein kinase 24 (Homo sapiens) (UniProt Q9Y6E0); assay: MST3(h) Millipore kinase panel; settings: Compound concentration 1.0 uM
Sequence of Serine/threonine-protein kinase 24 (Homo sapiens) (Q9Y6E0 whole entry, looked up): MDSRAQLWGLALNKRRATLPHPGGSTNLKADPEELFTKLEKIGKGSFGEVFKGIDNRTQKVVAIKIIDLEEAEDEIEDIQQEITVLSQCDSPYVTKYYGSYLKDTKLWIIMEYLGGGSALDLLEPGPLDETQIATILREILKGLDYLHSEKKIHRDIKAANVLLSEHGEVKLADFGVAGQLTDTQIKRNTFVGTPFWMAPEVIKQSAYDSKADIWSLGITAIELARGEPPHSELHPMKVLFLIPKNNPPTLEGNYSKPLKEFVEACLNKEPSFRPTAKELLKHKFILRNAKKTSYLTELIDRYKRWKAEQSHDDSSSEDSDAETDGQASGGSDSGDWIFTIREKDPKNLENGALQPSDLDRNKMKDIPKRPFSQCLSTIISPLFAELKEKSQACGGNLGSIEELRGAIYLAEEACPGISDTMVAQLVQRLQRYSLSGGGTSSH

[25] = target: Tyrosine-protein kinase SYK (Homo sapiens) (UniProt P43405); assay: Syk(h) Millipore kinase panel; settings: Compound concentration 1.0 uM
[26] = target: Serine/threonine-protein kinase BRSK2 (Homo sapiens) (UniProt Q8IWQ3); assay: BrSK2(h) Millipore kinase panel; settings: Compound concentration 1.0 uM
Sequence of Serine/threonine-protein kinase BRSK2 (Homo sapiens) (Q8IWQ3 whole entry): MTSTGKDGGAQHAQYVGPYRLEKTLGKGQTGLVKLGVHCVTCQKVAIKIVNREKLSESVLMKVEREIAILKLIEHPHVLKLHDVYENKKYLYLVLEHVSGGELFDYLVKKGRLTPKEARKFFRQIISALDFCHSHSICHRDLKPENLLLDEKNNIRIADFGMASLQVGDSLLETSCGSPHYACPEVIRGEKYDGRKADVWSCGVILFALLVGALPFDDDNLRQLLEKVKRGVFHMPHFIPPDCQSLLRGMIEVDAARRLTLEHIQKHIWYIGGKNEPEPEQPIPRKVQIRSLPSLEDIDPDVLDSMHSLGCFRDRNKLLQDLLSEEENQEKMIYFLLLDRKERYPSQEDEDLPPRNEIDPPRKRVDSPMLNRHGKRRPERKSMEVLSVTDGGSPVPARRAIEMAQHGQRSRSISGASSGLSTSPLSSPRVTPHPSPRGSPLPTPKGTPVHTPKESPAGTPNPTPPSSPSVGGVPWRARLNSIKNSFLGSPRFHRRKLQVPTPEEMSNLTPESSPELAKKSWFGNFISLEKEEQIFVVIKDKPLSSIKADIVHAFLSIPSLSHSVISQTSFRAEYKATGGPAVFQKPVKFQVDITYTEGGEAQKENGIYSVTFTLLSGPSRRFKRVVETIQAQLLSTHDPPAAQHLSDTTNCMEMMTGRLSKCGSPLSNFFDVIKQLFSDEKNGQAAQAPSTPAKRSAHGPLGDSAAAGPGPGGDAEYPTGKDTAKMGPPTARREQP

[27] = target: Homeodomain-interacting protein kinase 2 (Homo sapiens) (UniProt Q9H2X6); assay: HIPK2(h) Millipore kinase panel; settings: Compound concentration 1.0 uM
[28] = target: Gamma-aminobutyric acid type B receptor subunit 1 (Homo sapiens) (UniProt Q9UBS5); settings: Rattus norvegicus; Compound concentration 10.0 uM
[29] = target: cAMP-dependent protein kinase catalytic subunit PRKX (Homo sapiens) (UniProt P51817); assay: PrKX(h) Millipore kinase panel; settings: Compound concentration 1.0 uM
[30] = target: Tau-tubulin kinase 2 (Homo sapiens) (UniProt Q6IQ55); assay: TTBK2(h) Millipore kinase panel; settings: Compound concentration 1.0 uM
[31] = target: Mitogen-activated protein kinase kinase kinase 3 (Homo sapiens) (UniProt Q99759); assay: MEKK3(h) Millipore kinase panel; settings: Compound concentration 1.0 uM
[32] = target: Platelet-derived growth factor receptor alpha (Homo sapiens) (UniProt P16234); assay: PDGFRalpha Millipore kinase panel; settings: Compound concentration 1.0 uM
Sequence of Platelet-derived growth factor receptor alpha (Homo sapiens) (P16234 whole entry): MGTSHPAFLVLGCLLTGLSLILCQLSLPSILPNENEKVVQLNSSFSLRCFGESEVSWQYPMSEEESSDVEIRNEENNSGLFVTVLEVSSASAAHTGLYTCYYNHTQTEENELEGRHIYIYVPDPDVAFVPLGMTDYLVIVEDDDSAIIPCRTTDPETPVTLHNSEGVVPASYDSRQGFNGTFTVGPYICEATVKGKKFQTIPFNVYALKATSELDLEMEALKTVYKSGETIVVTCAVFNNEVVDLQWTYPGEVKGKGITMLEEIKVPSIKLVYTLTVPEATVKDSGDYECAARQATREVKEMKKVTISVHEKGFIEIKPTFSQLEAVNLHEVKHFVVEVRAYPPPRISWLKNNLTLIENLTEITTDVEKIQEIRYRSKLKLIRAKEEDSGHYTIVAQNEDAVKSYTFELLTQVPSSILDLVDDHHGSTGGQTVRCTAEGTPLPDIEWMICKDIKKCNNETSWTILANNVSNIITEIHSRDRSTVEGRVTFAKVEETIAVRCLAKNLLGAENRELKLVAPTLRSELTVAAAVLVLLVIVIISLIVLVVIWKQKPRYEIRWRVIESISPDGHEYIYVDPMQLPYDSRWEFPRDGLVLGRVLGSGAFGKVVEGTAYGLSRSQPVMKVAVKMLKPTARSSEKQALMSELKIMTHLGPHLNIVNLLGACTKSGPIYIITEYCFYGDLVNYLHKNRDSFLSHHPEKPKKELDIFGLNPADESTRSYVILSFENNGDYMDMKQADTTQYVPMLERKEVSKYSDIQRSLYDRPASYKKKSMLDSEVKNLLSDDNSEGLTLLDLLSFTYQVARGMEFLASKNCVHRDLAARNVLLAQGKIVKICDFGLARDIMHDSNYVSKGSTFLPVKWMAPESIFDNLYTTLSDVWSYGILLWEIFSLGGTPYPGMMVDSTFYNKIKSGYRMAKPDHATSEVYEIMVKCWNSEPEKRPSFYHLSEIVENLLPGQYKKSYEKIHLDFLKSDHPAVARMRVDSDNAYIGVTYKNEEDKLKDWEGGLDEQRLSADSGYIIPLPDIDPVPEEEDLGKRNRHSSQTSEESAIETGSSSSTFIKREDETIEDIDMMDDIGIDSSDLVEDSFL

[33] = target: Glutamate receptor ionotropic, kainate (Rattus norvegicus) (UniProt P22756+Q01812+P42260+P42264+Q63273); settings: Compound concentration 10.0 uM
[34] = target: Sodium-dependent serotonin transporter (Homo sapiens) (UniProt P31645); settings: Compound concentration 10.0 uM
[35] = target: Macrophage-stimulating protein receptor (Homo sapiens) (UniProt Q04912); assay: Ron(h) Millipore kinase panel; settings: Compound concentration 1.0 uM
[36] = target: Serine/threonine-protein kinase WNK4 (Homo sapiens) (UniProt Q96J92); assay: WNK4(h) Millipore kinase panel; settings: Compound concentration 1.0 uM
[37] = target: Interferon-induced, double-stranded RNA-activated protein kinase (Homo sapiens) (UniProt P19525); assay: PKR(h) Millipore kinase panel; settings: Compound concentration 1.0 uM
[38] = target: 5-hydroxytryptamine receptor 5A (Homo sapiens) (UniProt P47898); settings: Compound concentration 10.0 uM
[39] = target: cGMP-dependent protein kinase 1 (Homo sapiens) (UniProt Q13976); assay: PKG1alpha(h) Millipore kinase panel; settings: Compound concentration 1.0 uM
[40] = target: Adenosine receptor A2a (Homo sapiens) (UniProt P29274); settings: Compound concentration 10.0 uM
[41] = target: SNF-related serine/threonine-protein kinase (Homo sapiens) (UniProt Q9NRH2); assay: SNRK(h) Millipore kinase panel; settings: Compound concentration 1.0 uM
Sequence of SNF-related serine/threonine-protein kinase (Homo sapiens) (Q9NRH2 whole entry): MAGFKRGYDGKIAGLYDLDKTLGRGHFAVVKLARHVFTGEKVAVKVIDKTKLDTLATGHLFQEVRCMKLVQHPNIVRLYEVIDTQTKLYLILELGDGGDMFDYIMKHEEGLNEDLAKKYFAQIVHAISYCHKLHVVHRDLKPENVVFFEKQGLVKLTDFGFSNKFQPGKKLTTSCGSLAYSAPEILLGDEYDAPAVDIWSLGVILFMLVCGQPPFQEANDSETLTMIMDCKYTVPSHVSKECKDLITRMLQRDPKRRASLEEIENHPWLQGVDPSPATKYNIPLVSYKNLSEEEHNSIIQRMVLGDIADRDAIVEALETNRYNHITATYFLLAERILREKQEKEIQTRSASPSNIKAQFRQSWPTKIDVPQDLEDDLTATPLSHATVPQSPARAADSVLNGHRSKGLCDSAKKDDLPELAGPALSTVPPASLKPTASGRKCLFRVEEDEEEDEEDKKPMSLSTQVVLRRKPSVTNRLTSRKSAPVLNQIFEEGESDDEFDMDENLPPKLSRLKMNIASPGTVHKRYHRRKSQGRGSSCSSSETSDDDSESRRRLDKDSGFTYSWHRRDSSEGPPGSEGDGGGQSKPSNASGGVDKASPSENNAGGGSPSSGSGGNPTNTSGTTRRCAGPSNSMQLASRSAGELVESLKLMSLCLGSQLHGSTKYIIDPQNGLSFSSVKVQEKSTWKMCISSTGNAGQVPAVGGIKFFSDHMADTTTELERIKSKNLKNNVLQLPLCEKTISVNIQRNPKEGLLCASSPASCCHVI

[42] = target: D(3) dopamine receptor (Homo sapiens) (UniProt P35462); settings: Compound concentration 10.0 uM
[43] = target: Serine/threonine-protein kinase VRK1 (Homo sapiens) (UniProt Q99986); assay: VRK1(h) Millipore kinase panel; settings: Compound concentration 1.0 uM
[44] = target: Protein kinase C gamma type (Homo sapiens) (UniProt P05129); assay: PKCgamma(h) Millipore kinase panel; settings: Compound concentration 1.0 uM
[45] = target: Cyclin-dependent kinase-like 4 (Homo sapiens) (UniProt Q5MAI5); assay: CDKL4(h) Millipore kinase panel; settings: Compound concentration 1.0 uM
[46] = target: Mu-type opioid receptor (Homo sapiens) (UniProt P35372); settings: Compound concentration 10.0 uM; remark: listed apart in the source

## CC[C@@H](Nc1c(C#N)c(-c2ccc(-c3cccc(C)c3F)cc2)nc2cnccc12)C(=O)O [BAY-091]
[1]
  inhibition: 5.02%
[2]
  inhibition: 18%
Rattus norvegicus
  inhibition: 1%
[3]
  inhibition: -3%
[4]
  inhibition: 3.68%
[5]
  inhibition: 19.4%
[6]
  inhibition: 5.7%
[7]
  inhibition: -2.05%
[8]
  inhibition: 3.94%
[9]
  inhibition: 14.2%
[10]
  inhibition: -1.5%
[11]
  inhibition: 12.9%
[12]
  inhibition: 98%
[13]
  inhibition: 14.8%
[14]
  inhibition: 5.32%
[15]
  inhibition: -7.76%
[16]
  inhibition: 18.9%
[17]
  inhibition: 16.3%
[18]
  inhibition: 1.43%
[19]
  inhibition: 3%
[20]
  inhibition: 8.13%
[21]
  inhibition: 2.08%
[22]
  inhibition: -9.06%
[23]
  inhibition: 7.12%
[24]
  inhibition: 1.03%
[25]
  inhibition: 10.4%
[26]
  inhibition: 3.83%
[27]
  inhibition: 0.19%
[28]
  inhibition: 5%
[29]
  inhibition: 2.66%
[30]
  inhibition: 1.17%
[31]
  inhibition: -3.58%
[32]
  inhibition: 9.33%
[33]
  inhibition: -2%
[34]
  inhibition: 10%
[35]
  inhibition: 0.76%
[36]
  inhibition: 11.1%
[37]
  inhibition: 13.9%
[38]
  inhibition: 14.8%
[39]
  inhibition: 6.77%
[40]
  inhibition: 7%
[41]
  inhibition: 10.3%
[42]
  inhibition: 27%
[43]
  inhibition: 3.04%
[44]
  inhibition: -0.39%
[45]
  inhibition: 12.6%
[46]
  inhibition: 13%
